Reference: patent publication EP2193713A1, “Method for fighting animal pests without damaging pollinating insects” (Bayer CropScience AG, priority 2008, dated 2010)
Like-named read-outs stand apart in the source and are kept apart here.

What was measured:
Type in all cases: in vivo
Apis mellifera [1] = assay: Tunnel test / spray application / bees: brood development (share of comb cells); details: for Brutentwicklung: result in words, 75 und 150 g a.s./ha
Source text: (§1) Der Test wurde gemäß EPPO (European Plant Protection Organisation) Leitlinie 170 wie folgt durchgeführt:
Über alle Waben eines Bienenstocks wird der jeweilige Anteil an Zellen bestimmt, der durch Pollen, Nektar, Eier, Larven oder Puppen belegt ist bzw. leer ist. […]

Apis mellifera [2] = assay: Tent test / drench application / bees: foraging activity; details: for Aktivität der Nahrungssuche, Zahl der Bienen / min / 4 m^2: 20 mg a.s./pl.
Source text: Der Test wurde wie folgt durchgeführt:

Apis mellifera [3] = details: for Zahl toter Arbeiterbienen: 20 mg a.s./pl.
Source text: Die Mortalität von Arbeiterbienen vor dem Bienenstock wird mittels einer Falle für tote Bienen (dead bee trap) bestimmt. Die Falle besteht aus Maschendraht und ist vor dem Bienenstock angebracht. Einzelne, lebende Bienen können die Maschen des Drahts passieren, der Transport toter Bienen durch die Maschen ist nicht möglich, weswegen tote Bienen sich in der Falle ansammeln. Tabelle 1 (siehe auch Figur 1)

Apis mellifera [4] = assay: Tunnel test / spray application / bees: foraging activity
Source text: as §1
Während einer Minute werden in einem abgegrenzten Bereich von 2 x 1 m^2 die Bienen gezählt, die auf Blüten absitzen. Tabelle 3 (siehe auch Figur 3)

Bombus terrestris = assay: Tent test / drench application / bumblebees: flight activity at the hive; details: for Flugaktivität am Stock, Zahl der Hummeln / 10 min: 20 mg a.s./pl.
Description: Der Versuch wurde wie folgt durchgeführt:
Die Zahl der Hummeln, die im Zeitraum von 10 min in den Stock geflogen sind oder diesen verlassen haben wurde bestimmt. Tabelle 7 (siehe auch Figur 7)

[5] = 150 g a.s./ha, 14 Tage nach Applikation
[6] = 150 g a.s./ha, 27 Tage nach Applikation

O=C1C=C(N(Cc2ccc(Cl)nc2)CC(F)F)CO1 [I-5, 4-{[(6-Chlorpyrid-3-yl)methyl](2,2-difluorethyl)amino}furan-2(5H)-on]
Anteil an Zellen: Nektar (Apis mellifera [1]; [5]): 12,2%
Anteil an Zellen: Pollen (Apis mellifera [1]; [5]): 4,2%
Anteil an Zellen: Puppen (Apis mellifera [1]; [5]): 14,7%
Anteil an Zellen: Eier (Apis mellifera [1]; [6]): 15,3%
Anteil an Zellen: Larven (Apis mellifera [1]; [6]): 7,2%
Anteil an Zellen: Leer (Apis mellifera [1]; [6]): 21,9%
Anteil an Zellen: Nektar (Apis mellifera [1]; [6]): 16,4%
Anteil an Zellen: Pollen (Apis mellifera [1]; [6]): 4,2%
Anteil an Zellen: Puppen (Apis mellifera [1]; [6]): 35%
Brutentwicklung (Apis mellifera [1]; 6 Tage nach Applikation): keine Änderung
Brutentwicklung (Apis mellifera [1]; 14 Tage nach Applikation): keine Änderung
Brutentwicklung (Apis mellifera [1]; 27 Tage nach Applikation): keine Änderung
Aktivität der Nahrungssuche, Zahl der Bienen / min / 4 m^2 (Apis mellifera [2]; 5 DAA): 26 Bienen / min / 4 m^2
Aktivität der Nahrungssuche, Zahl der Bienen / min / 4 m^2 (Apis mellifera [2]; 6 DAA b (14:30 Uhr)): 73 Bienen / min / 4 m^2
Aktivität der Nahrungssuche, Zahl der Bienen / min / 4 m^2 (Apis mellifera [2]; 7 DAA): 21 Bienen / min / 4 m^2
Aktivität der Nahrungssuche, Zahl der Bienen / min / 4 m^2 (Apis mellifera [2]; 8 DAA): 70 Bienen / min / 4 m^2
Aktivität der Nahrungssuche, Zahl der Bienen / min / 4 m^2 (Apis mellifera [2]; 9 DAA): 41 Bienen / min / 4 m^2
Aktivität der Nahrungssuche, Zahl der Bienen / min / 4 m^2 (Apis mellifera [2]; 11 DAA): 31 Bienen / min / 4 m^2
Aktivität der Nahrungssuche, Zahl der Bienen / min / 4 m^2 (Apis mellifera [2]; 13 DAA): 86 Bienen / min / 4 m^2
Aktivität der Nahrungssuche, Zahl der Bienen / min / 4 m^2 (Apis mellifera [2]; 15 DAA): 43 Bienen / min / 4 m^2
Aktivität der Nahrungssuche, Zahl der Bienen / min / 4 m^2 (Apis mellifera [2]; 16 DAA): 51 Bienen / min / 4 m^2
Aktivität der Nahrungssuche, Zahl der Bienen / min / 4 m^2 (Apis mellifera [2]; 17 DAA): 98 Bienen / min / 4 m^2
Aktivität der Nahrungssuche, Zahl der Bienen / min / 4 m^2 (Apis mellifera [2]; 18 DAA): 71 Bienen / min / 4 m^2
Aktivität der Nahrungssuche (Apis mellifera [2]; result in words, tent test, drench, I-5 20 mg a.s. / Pflanze, Thiamethoxam 10 mg a.s. / Pflanze (13 Tage nach Applikation)): keine Änderung
Zahl toter Arbeiterbienen (Apis mellifera [3]; 6 DAA a (9:30 Uhr)): 8
Zahl toter Arbeiterbienen (Apis mellifera [3]; 6 DAA b (14:30 Uhr)): 2
Zahl toter Arbeiterbienen (Apis mellifera [3]; 7 DAA): 8
Zahl toter Arbeiterbienen (Apis mellifera [3]; 8 DAA): 0
Zahl toter Arbeiterbienen (Apis mellifera [3]; 9 DAA): 0
Zahl toter Arbeiterbienen (Apis mellifera [3]; 10 DAA): 7
Zahl toter Arbeiterbienen (Apis mellifera [3]; 11 DAA): 2
Zahl toter Arbeiterbienen (Apis mellifera [3]; 14 DAA): 1
Zahl toter Arbeiterbienen (Apis mellifera [3]; 16 DAA): 1
Zahl toter Arbeiterbienen (Apis mellifera [3]; 18 DAA): 2
Mortalität von Arbeiterbienen vor dem Bienenstock (Apis mellifera [3]; result in words, tent test, drench, I-5 20 mg a.s. / Pflanze, Thiamethoxam 10 mg a.s. / Pflanze): keine Mortalität
Aktivität der Nahrungssuche, Zahl der Bienen / min / m^2 (Apis mellifera [4]; 75 g a.s./ha, 0 DAA a (09:30 Uhr)): 25,5 Bienen / min / m^2
Aktivität der Nahrungssuche, Zahl der Bienen / min / m^2 (Apis mellifera [4]; 75 g a.s./ha, 0 DAA c (14:15 Uhr)): 41 Bienen / min / m^2
Aktivität der Nahrungssuche, Zahl der Bienen / min / m^2 (Apis mellifera [4]; 75 g a.s./ha, 0 DAA e (17:15 Uhr)): 42,7 Bienen / min / m^2
Aktivität der Nahrungssuche, Zahl der Bienen / min / m^2 (Apis mellifera [4]; 75 g a.s./ha, 1 DAA b (15:30 Uhr)): 18,8 Bienen / min / m^2
Aktivität der Nahrungssuche, Zahl der Bienen / min / m^2 (Apis mellifera [4]; 75 g a.s./ha, 2 DAA): 33,3 Bienen / min / m^2
Aktivität der Nahrungssuche, Zahl der Bienen / min / m^2 (Apis mellifera [4]; 75 g a.s./ha, 3 DAA): 40,3 Bienen / min / m^2
Aktivität der Nahrungssuche, Zahl der Bienen / min / m^2 (Apis mellifera [4]; 75 g a.s./ha, 6 DAA): 37,8 Bienen / min / m^2
Aktivität der Nahrungssuche, Zahl der Bienen / min / m^2 (Apis mellifera [4]; 75 g a.s./ha, -1 DAA (before application)): 27,3 Bienen / min / m^2
Aktivität der Nahrungssuche, Zahl der Bienen / min / m^2 (Apis mellifera [4]; 75 g a.s./ha, -2 DAA (before application)): 34,8 Bienen / min / m^2
Aktivität der Nahrungssuche, Zahl der Bienen / min / m^2 (Apis mellifera [4]; 75 g a.s./ha, -3 DAA (before application)): 26,5 Bienen / min / m^2
Aktivität der Nahrungssuche, Zahl der Bienen / min / m^2 (Apis mellifera [4]; 150 g a.s./ha, 0 DAA a (09:30 Uhr)): 28,3 Bienen / min / m^2
Aktivität der Nahrungssuche, Zahl der Bienen / min / m^2 (Apis mellifera [4]; 150 g a.s./ha, 0 DAA c (14:15 Uhr)): 40,2 Bienen / min / m^2
Aktivität der Nahrungssuche, Zahl der Bienen / min / m^2 (Apis mellifera [4]; 150 g a.s./ha, 0 DAA e (17:15 Uhr)): 39 Bienen / min / m^2
Aktivität der Nahrungssuche, Zahl der Bienen / min / m^2 (Apis mellifera [4]; 150 g a.s./ha, 1 DAA b (15:30 Uhr)): 19,2 Bienen / min / m^2
Aktivität der Nahrungssuche, Zahl der Bienen / min / m^2 (Apis mellifera [4]; 150 g a.s./ha, 2 DAA): 35,7 Bienen / min / m^2
Aktivität der Nahrungssuche, Zahl der Bienen / min / m^2 (Apis mellifera [4]; 150 g a.s./ha, 3 DAA): 39,3 Bienen / min / m^2
Aktivität der Nahrungssuche, Zahl der Bienen / min / m^2 (Apis mellifera [4]; 150 g a.s./ha, 6 DAA): 37,5 Bienen / min / m^2
Aktivität der Nahrungssuche, Zahl der Bienen / min / m^2 (Apis mellifera [4]; 150 g a.s./ha, -1 DAA (before application)): 26,3 Bienen / min / m^2
Aktivität der Nahrungssuche, Zahl der Bienen / min / m^2 (Apis mellifera [4]; 150 g a.s./ha, -2 DAA (before application)): 34,2 Bienen / min / m^2
Aktivität der Nahrungssuche, Zahl der Bienen / min / m^2 (Apis mellifera [4]; 150 g a.s./ha, -3 DAA (before application)): 27 Bienen / min / m^2
Aktivität der Nahrungssuche (Apis mellifera [4]; result in words, tunnel test, spray, I-5 75 und 150 g a.s./ha, Thiamethoxam 50 g a.s./ha directly after application): keine Änderung
Flugaktivität am Stock, Zahl der Hummeln / 10 min (Bombus terrestris; 0 DAA): 9 Hummeln / 10 min
Flugaktivität am Stock, Zahl der Hummeln / 10 min (Bombus terrestris; 6 DAA after first application): 11 Hummeln / 10 min
Flugaktivität am Stock, Zahl der Hummeln / 10 min (Bombus terrestris; 8 DAA after first application): 15 Hummeln / 10 min
Flugaktivität am Stock, Zahl der Hummeln / 10 min (Bombus terrestris; 13 DAA after first application): 11 Hummeln / 10 min
Flugaktivität am Stock, Zahl der Hummeln / 10 min (Bombus terrestris; 20 DAA after first application): 12 Hummeln / 10 min
Flugaktivität am Stock, Zahl der Hummeln / 10 min (Bombus terrestris; 23 DAA after first application): 14 Hummeln / 10 min
Flugaktivität am Stock, Zahl der Hummeln / 10 min (Bombus terrestris; 27 DAA after first application): 11 Hummeln / 10 min
Flugaktivität am Stock, Zahl der Hummeln / 10 min (Bombus terrestris; 34 DAA after first application): 6 Hummeln / 10 min
Flugaktivität am Stock, Zahl der Hummeln / 10 min (Bombus terrestris; -1 DAA (before first application)): 13 Hummeln / 10 min
Flugaktivität der Hummeln (Bombus terrestris; result in words, 20 mg a.s. / Pflanze, 2 applications (Tag 0 und Tag 14)): keine Änderung
